Columns and labels:
[1] = pH-dependent aqueous solubility of the Agent; type: physicochemical; details: free-base form
[2] = Biopharmaceutics Classification System (BCS) classification; type: physicochemical
Text: Under the BCS system Class II compounds are sparingly soluble with high permeability.

[3] = aqueous dissolution medium containing 4% sodium lauryl sulfate, in 60 minutes; cited from earlier work

Which solubility ([1]; above pH 7) does the source give for COc1cc2ncnc(Nc3ccc(F)c(Cl)c3)c2cc1OCCCN1CCOCC1 [Agent, 4-(3′-chloro-4′-fluoroanilino)-7-methoxy-6-(3-morpholinopropoxy)quinazoline] here?
Its solubility is “very low solubility”.

And the “ml of aqueous solvent required to dissolve 1 g of Agent” value ([1]; pH 6)?
Its value is no less than 10000 mL.

What about the BCS class [2] of the same compound?
Its BCS class is “Class II”.

With COC1=CC(=O)C[C@@H](C)[C@]12Oc1c(Cl)c(OC)cc(OC)c1C2=O [Griseofluvin] as the compound, how does the “% dissolution” value [3] read?
The value was “at least 75%”.
